Measurements published in PubChem BioAssay (NCI).
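Each compound was tested at five concentrations against cells in 96-well plates for 48 hours. GI50 = concentration required for 50% inhibition of growth. TGI marks complete inhibition of growth.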

Key:
Test in all cases: inhibition of tumour cell growth, NCI panel, 48 h
DLD-1 colon = system: DLD-1 colon
KM20L2 colon = system: KM20L2 colon
DU-145 prostate = system: DU-145 prostate
MCF7 breast = system: MCF7 breast
MDA-MB-435 = system: MDA-MB-435
MDA-N = system: MDA-N
PC-3 prostate = system: PC-3 prostate
NCI/ADR-RES ovarian = system: NCI/ADR-RES ovarian

SMILES | TGI (DLD-1 colon) | TGI (KM20L2 colon) | TGI (DU-145 prostate) | TGI (MCF7 breast) | TGI (MDA-MB-435) | TGI (MDA-N) | TGI (PC-3 prostate) | GI50 (DU-145 prostate) | GI50 (MCF7 breast) | GI50 (MDA-MB-435) | GI50 (PC-3 prostate) | TGI (NCI/ADR-RES ovarian) | GI50 (NCI/ADR-RES ovarian) | GI50 (DLD-1 colon) | GI50 (KM20L2 colon)
S=c1nc(-c2ccnc(-c3nc(=S)[nH][nH]3)c2)[nH][nH]1 | > 100 µM | > 100 µM |  |  |  |  |  |  |  |  |  |  |  |  | 
CC(=O)Oc1ccc2c(c1)CC[C@@H]1C2CC[C@]2(C)C(=O)NC(=O)CC12 (stereo partly specified) |  |  | > 100 µM | > 100 µM | > 100 µM | > 100 µM | > 100 µM |  |  |  |  |  |  |  | 
Nc1[nH]c(=O)ncc1CO |  |  | > 100 µM | > 100 µM | > 100 µM |  | > 100 µM | > 100 µM | > 100 µM | > 100 µM | > 100 µM |  |  |  | 
Cc1nc(N)nc2ccccc12 |  |  | > 100 µM | > 100 µM | > 100 µM | > 100 µM | > 100 µM |  |  |  |  | > 100 µM |  |  | 
O=c1c2ccccc2oc2ccc(OCCCCCCN3CCCCCC3)cc12 |  |  | 19 µM | 5.53 µM | 8.75 µM |  | 13.2 µM | 5.89 µM | 1.91 µM | 2.53 µM | 3.17 µM | 24.6 µM | 3.73 µM |  | 
COC(=O)/C(=N\NC(N)=S)C(C#N)c1ccccc1 (stereo unspecified) | > 100 µM | > 100 µM |  |  |  |  |  |  |  |  |  |  |  |  | 
Cc1cc(Cl)ccc1Nc1nc(C(F)(F)F)ccc1C(=O)N1CCN(c2cccc(Cl)c2)CC1 |  |  | > 100 µM | > 100 µM | > 100 µM |  | > 100 µM | > 100 µM | 25.6 µM | > 100 µM | 7.56 µM | > 100 µM | > 100 µM |  | 
COc1cc2cc3c4c(cc(OC)c(OC)c4c2cc1OC)CCN3C(=O)CCC(=O)NCCCN(C)C | 30.9 µM | 67 µM |  |  |  |  |  |  |  |  |  |  |  |  | 
CC1=NN(C(=O)c2ccccc2O)C(=O)/C1=C/c1cccc([N+](=O)[O-])c1 | > 100 µM | 63.6 µM | > 100 µM | > 100 µM | > 100 µM | > 100 µM | > 100 µM |  |  |  |  | > 100 µM |  |  | 
CC(=O)OC1CC2C(=O)C(=O)C1(C)C2(C)C (stereo unspecified) |  |  | > 100 µM | > 100 µM | > 100 µM | > 100 µM | > 100 µM |  |  |  |  | > 100 µM |  |  | 
N[C@@H]1CCCC[C@@H]1N.O=P([O-])([O-])CN(CP(=O)([O-])[O-])CP(=O)([O-])[O-].[Pt+2] | > 100 µM | > 100 µM |  |  |  |  |  |  |  |  |  |  |  | > 100 µM | > 100 µM
C=[CH][Sn]([CH]=C)([O]c1cccc2cccnc12)[O]c1cccc2cccnc12 |  | 4.99 µM | 23.2 µM | 12.6 µM | 40.8 µM |  | 29.7 µM | 7.29 µM | 3.11 µM | 7.86 µM | 3.85 µM | > 100 µM | 9.94 µM |  | 2.26 µM
CC(=O)Oc1ccc(/C=N/NC(N)=S)nc1 |  |  | 8.38 µM | > 100 µM | > 100 µM |  | > 100 µM | 2.36 µM | 2.13 µM | 5.14 µM | 5.28 µM | > 100 µM | 3.48 µM |  | 
CCOc1ccc(C(CN2CCOCC2)C(C)=O)cc1OC (stereo unspecified) | 27.9 µM | 35 µM |  |  |  |  |  |  |  |  |  |  |  |  | 
CCC1CNC(=O)CC1CC(=O)OC (stereo unspecified) |  | > 100 µM |  |  |  |  |  |  |  |  |  |  |  |  | 
CC1CCC2N(C1)CC1C3(O)CC45OC6(O)C(O)CCC4(C)C6CCC5C3(O)CC(O)C1(O)C2(C)O (stereo unspecified) |  |  | > 100 µM | > 100 µM | > 100 µM | > 100 µM | > 100 µM |  |  |  |  | > 100 µM |  |  | 
Cc1c(C(=O)CSc2nc3ccccc3[nH]2)c(=O)n(-c2ccccc2)n1C | > 100 µM | > 100 µM |  |  |  |  |  |  |  |  |  |  |  |  | 
CO[C@@]12[C@@H]3NC3CN1C1=C(C(=O)C(N)=C(C)C1=O)[C@@H]2COC(N)=O (stereo partly specified) |  |  | 11.9 µM | 7.55 µM | 8.3 µM |  | 37.1 µM |  | 0.0809 µM | 1.13 µM | 2.02 µM | > 90.5 µM | 3.45 µM |  | 
OCNCCNc1nc2ccccc2c2[nH]c3ccccc3c12 |  |  | 2.42 µM | 4.5 µM | 5.11 µM |  | 2.11 µM | 0.735 µM | 1.24 µM | 1.46 µM | 0.879 µM | 22.6 µM | 7.17 µM |  | 
CC1OC(OC2CCC3(C=O)C4CCC5(C)C(C6=CC(=O)OC6)CCC5(O)C4CCC3(O)C2)C(O)C(O)C1O (stereo unspecified) |  |  | 1.75e-05 µM |  | 7.77e-05 µM | 7.94e-05 µM | 0.0025 µM |  |  |  |  | 6.17e-05 µM |  |  | 
COc1cccc(/C=C/C(=O)c2cc3c(N)c(C(=O)Nc4cccc5ccccc45)sc3nc2C)c1 |  |  | 2.86 µM | > 50 µM |  |  | 6.22 µM | 1.14 µM | 0.339 µM |  | 1.48 µM | 5.75 µM | 1.33 µM |  | 
Cc1cc(Cl)cc2c1NC(=O)C2=O (tested in a mixture with another compound) | > 100 µM | > 100 µM |  |  |  |  |  |  |  |  |  |  |  |  | 
CCN(CC)CCN(C(=O)C(C)(C)C)c1ccccc1N |  |  | > 100 µM | > 100 µM |  | > 100 µM | > 100 µM |  |  |  |  | > 100 µM |  |  | 
O=C(Cc1csc2nc(-c3ccc(Br)cc3)cn12)N/N=C/c1ccc(O)cc1 |  |  | 87.4 µM | > 100 µM | 24.3 µM |  | 23.7 µM | 22.4 µM | 62.7 µM | 6.27 µM |  | 61.1 µM | 21.2 µM |  | 
N=C1C=C(N)C(=O)c2[nH]c(=O)ccc21 |  |  | 21.4 µM | 1.78 µM | 2.3 µM | 2.28 µM | 2.8 µM |  |  |  |  | 4.86 µM |  |  | 
C/C=C1\C(=O)OC2CCN3CCC(COC(=O)C(C)(O)C(C)C1O)C23 (stereo unspecified) |  |  | > 100 µM | > 100 µM | > 100 µM | > 100 µM | > 100 µM |  |  |  |  | > 100 µM |  |  | 
O=C1C=CC2(C=C1)C[C@H](NC(=O)C(F)(F)F)C(=O)O2 | 53.1 µM | > 100 µM |  |  |  |  |  |  |  |  |  |  |  |  | 
COc1nc(NC2OC(COC(C)=O)C(OC(C)=O)C(OC(C)=O)C2OC(C)=O)c(-c2csc(N)n2)c(=O)n1C (stereo unspecified) | > 100 µM | > 100 µM |  |  |  |  |  |  |  |  |  |  |  |  | 
O=C(Nc1ccccc1C(=O)N/N=C(\c1ccccc1)c1ccccn1)c1ccc(F)cc1 |  |  | > 100 µM | > 100 µM | > 100 µM |  | > 100 µM | 0.351 µM | 0.308 µM | 0.602 µM | 0.792 µM | > 19.7 µM | 0.105 µM |  | 
O=C1CN(/N=C/c2ccc(-c3ccc(F)cc3)o2)C(=O)N1 |  |  | > 100 µM | > 100 µM | 41.1 µM | 38.6 µM | > 100 µM |  |  |  |  | > 100 µM |  |  | 
